Patent publication US20050113318A1, “Combination of dehydroepiandrosterone or dehydroepiandrosterone-sulfate with a beta-agonist bronchodilator for treatment of asthma or chronic obstructive pulmonary disease” (priority 2003, published 2005)
“And” between values parts separate entries of the source, which are not always exact repeats. Identical values can stand only once.

Columns and labels:
Format in all cases: physicochemical
[1] = HPLC analysis of drug degradation during jet milling; details: single-pass and double-pass vs unmilled standard, HPLC peak area
Method: Two vials (A; single-pass; 150 mg) and (B double-pass; 600 mg) of the micronized drug were available for determining drug degradation during jet milling micronization. […] The chromatographic peak area for the HPLC assay of the unmilled drug standard solution (10 mg/ml) gave a value of 23,427. […] The chromatographic peak areas for vials A and B were 11,979 and 11,677, respectively.

[2] = Emitted dose studies with dry powder inhalers; details: for Emitted Dose: single runs
Method: DHEA-S powder was collected in Nephele tubes and assayed by HPLC. Triplicate experiments were performed at each airflow rate for each of the three dry powder inhalers tested (Rotahaler, Diskhaler and IDL's DPI devices). A Nephele tube was fitted at one end with a glass filter (Gelman Sciences, Type A/E, […]), which in turn was connected to the airflow line to collect the emitted dose of the drug from the respective dry powder inhaler being tested. A silicone adapter, with an opening to receive the mouthpiece of the respective dry powder inhaler being tested at the other end of the Nephele tube was secured. A desired airflow, of 30, 60, or 90 L/min, was achieved through the Nephele tube. Each dry powder inhaler's mouthpiece was inserted then into the silicone rubber adapter, and the airflow was continued for about four s after which the tube was removed and an end-cap screwed onto the end of each tube. The end-cap of the tube not containing the filter was removed and 10 ml of an HPLC grade water-acetonitrile solution (1:1) added to the tube, the end-cap reattached, and the tube shaken for 1-2 minutes. The end-cap then was removed from the tube and the solution was transferred to a 10 ml plastic syringe fitted with a filter (Cameo 13N Syringe Filter, Nylon, 0.22 μm). An aliquot of the solution was directly filtered into an HPLC vial for later drug assay via HPLC. […] When the micronized DHEA-S (only vial B used), was weighed for placement into the gelatin capsule or blister, there appeared to be a few aggregates of the micronized powder. […] Table 2 summarizes the results for the Rotahaler experiments at 3 different flow rates, for the Diskhaler experiments at 3 different flow rates, and of the multi-dose experiments at 3 different flow rates.

[3] = Fine particle fraction, single-dose Acu-Breathe inhaler into Andersen impactor; details: 30 L/min, IDL data, FIG. 1; result set to zero
Method: These blisters are actuated into the Andersen 8-stage cascade impactor at flow rates ranging from 30 to 75 L/min with a glass twin-impinger throat. Stages 1-5 of the Andersen impactor are rinsed together to obtain an estimate of the fine particle fraction. Pooling the drug collected from multiple stages into one assay make the method much more sensitive. […] Using a carrier with a larger particle size typically improves the aerosol properties of micronized drug substances.
Approximately 25 mg of this powder is filled and sealed in foil blisters and aerosolized using the single-dose device at 60 L/min. The aerosol results for this preliminary powder blend are satisfactory for a respiratory drug delivery system. […] This diameter is smaller than the median diameter measured for micronized DHEA-S.dihydrate by laser diffraction. Irregularly shaped particles can behave aerodynamically as smaller particles since their longest dimension tends to align with the air flow field. Therefore, it is common to see a difference between the two methods. Diffraction measurements are a quality control test for the input material while cascade impaction is a quality control test for the finished product.

[4] = Diskhaler (2nd study), 87.8 L/min
[5] = IDL Multi-Dose (2nd study), 87.8 L/min

C[C@]12CC[C@H](OS(=O)(=O)[O-])CC1=CC[C@@H]1[C@@H]2CC[C@]2(C)C(=O)CC[C@@H]12.[Na+] [Anhydrous DHEA-S]
degradation of the drug during jet milling micronization [1]: no detectable degradation
Emitted Dose, Average [2, 4]: 59.1%
Emitted Dose [2, 4]: 57.9% and 59.9% and 59.5%
Emitted Dose, Average ([2]; Diskhaler, 30 L/min): 58.6%
Emitted Dose ([2]; Diskhaler, 30 L/min): 53.8% and 53.4% and 68.7%
Emitted Dose, Average ([2]; Diskhaler, 60 L/min): 68.2%
Emitted Dose ([2]; Diskhaler, 60 L/min): 63.4% and 38.9% and 58.0%
Emitted Dose, Average ([2]; Diskhaler, 87.8 L/min): 51.3%
Emitted Dose ([2]; Diskhaler, 87.8 L/min): 65.7% and 41.6% and 46.5%
Emitted Dose, Average [2, 5]: 84.8%
Emitted Dose [2, 5]: 85.7% and 84.6% and 84.0%
Emitted Dose, Average ([2]; IDL Multi-Dose, 30 L/min): 85.4%
Emitted Dose ([2]; IDL Multi-Dose, 30 L/min): 78.9% and 88.2% and 89.2%
Emitted Dose, Average ([2]; IDL Multi-Dose, 60 L/min): 84.0%
Emitted Dose ([2]; IDL Multi-Dose, 60 L/min): 78.8% and 83.7% and 89.6%
Emitted Dose, Average ([2]; IDL Multi-Dose, 87.8 L/min): 72.6%
Emitted Dose ([2]; IDL Multi-Dose, 87.8 L/min): 71.3% and 79.0% and 67.4%
Emitted Dose, Average ([2]; Rotahaler (2nd study), 87.8 L/min): 31.5%
Emitted Dose, Average ([2]; Rotahaler, 30 L/min): 34.7%
Emitted Dose, Average ([2]; Rotahaler, 60 L/min): 57.3%
Emitted Dose ([2]; Rotahaler, 60 L/min): 58.1% and 68.2% and 45.7%
Emitted Dose, Average ([2]; Rotahaler, 87.8 L/min): 69.7%
Emitted Dose ([2]; Rotahaler, 87.8 L/min): 73.2% and 67.1% and 68.7%
fine particle fraction [3]: no detectable mass entered the impactor
